By EC50 is commonly meant the concentration needed to bring the measured effect to its halfway point. In general, EC90 refers to the concentration at which the effect reaches the 90% level. Low values mean greater potency, high ones weaker potency.

The test system of one assay is murine CD8+ T cells. Briefly: Murine CD8+ T-cell proliferation (CFSE), Example 6. The class given is cell-based, C57BL/6 mice. The settings on record: 30 mM, in absence of PS, ConA 10 μg/ml. The procedure:
Preparation of test materials: TTA, compound A and compound B were formulated in RPMI media under aseptic conditions. The pH was adjusted to approximately 7.5 before dosing cells.
Tissue culture and dosing: Splenocytes of C57BL/6 mice were stained with CFSE and prepared, cultured, and dosed. Cells were seeded at 1×10^5 cells/well in a 96-well round-bottomed plate.
Controls: Two controls were used. A negative control dosed with 10 ng/ml IL2 was used, and a positive control dosed with 20 μg/ml ConA and 10 ng/ml IL2 was used.
Treatment: After ConA stimulation (10 μg/ml), cells were dosed with 30 mM compound A, B or C with or without 0.1 mM 30:70 PS:DMPC liposomes. All wells were dosed with 10 ng/ml of IL-2.

The next assay deals with Granzyme B and IFN-γ. Put plainly: Dose-response of GranzymeB/IFN-γ double positivity in murine CD8+ T-cells, Example 9. The settings on record: Mus musculus, T-cell. The assay is classed as cell-based, C57BL/6 mice. The method, then: A dose-response analysis of compounds B-E in murine CD8+ T-cells was conducted to evaluate the effect of dose on GranzymeB/IFN-γ double positivity.
Compound C, D and E were first dissolved in a small volume of DMSO before diluting to the final desired concentration.
Splenocytes from naïve C57BL/6 mice were stained with CFSE, prepared, cultured, and dosed. Cells were seeded at 2×10^5 cells/well. Negative control was dosed with 10 ng/ml IL-2. After ConA stimulation (10 μg/ml), cells were dosed with log 3 dilution of each compound from 3×10^−9 to 30 µM in triplicates. All wells were dosed with 10 ng/ml of IL-2.
Flow cytometer analysis was performed to assess percent CD8+ T-cells and percent activation by double staining for Granzyme B (GzmB) and IFN-γ as described in Example 7. Concentration versus response curve was fitted to a 4- or 5-parameter log-logistic model using the “dre” package in “R”. Both EC50 and EC90 were obtained by model fitting.

The test system of assay [1] is T-cells isolated from spleens. Briefly: FoxP3/KLRG-1/CTLA4 in T-cells isolated from spleens of compound D-treated animals. The settings on record: 2.5 mg IV daily for seven days. The assay is classed as in vivo. The method, then: Animals were treated with 2.5 mg of compound D IV daily for seven days. Upon completion of the treatment period, T-cells isolated from spleens of the animals were analyzed by flow cytometry.

The subject of a further assay is KLRG1. Briefly: Percent KLRG1+ T-cells in spleens, single dose on Day 7 (Examples 17, 19, 20). The settings on record: for activity after oral administration (KLRG1+, PD1+ T-cells): single PO dose: E 2.5 mg, F 1 mg, G 1 mg; for percent KLRG1+ T-cells compared to untreated animals: single dose, E 0.1, 0.25, 1 mg IV or 2.5 mg PO, F 0.03-1 mg IV or 1 mg PO, G 0.1, 0.4, 1 mg IV or 1 mg PO. The class given is in vivo, C57BL6 mice. The method, then: (§1) Melanoma B16F10 cells were injected IV into C57BL6 mice on Day 0. On Day 7, mice were administered a single dose of 0.1 mg, 0.25 mg, or 1 mg of Compound E IV or 2.5 mg Compound E PO. One group was left untreated. Three mice at each time point were sacrificed, and their spleens were extracted. Percent KLRG1+ and PD-1^+ T-cells were quantified. Briefly, single-cell suspensions prepared from the extracted spleens were prepared and stained for KLRG1, PD-1 and CD8, and analyzed by flow cytometry.
(§2) Melanoma B16F10 cells were injected IV into C57BL6 mice on Day 0. On Day 7, mice were administered a single dose of 0.03 mg, 0.1 mg, 0.3 mg or 1 mg Compound F IV or 1 mg Compound F PO. One group was left untreated. Three mice at each time point were sacrificed, and their spleens were extracted. Percent KLRG1+ and PD-1^+ T-cells were quantified. Briefly, single-cell suspensions prepared from the extracted spleens were prepared and stained for KLRG1, PD-1 and CD8, and analyzed by flow cytometry.
(§3) Melanoma B16F10 cells were injected IV into C57BL6 mice on Day 0. On Day 7, mice were administered a single dose of 0.1 mg, 0.4 mg, or 1 mg Compound G IV or 1 mg Compound G PO. One group was left untreated. Three mice at each time point were sacrificed, and their spleens were extracted. Percent KLRG1+ and PD-1^+ T-cells were quantified. Briefly, single-cell suspensions prepared from the extracted spleens were prepared and stained for KLRG1, PD-1 and CD8, and analyzed by flow cytometry.

A further assay has as its system PD-1. Put plainly: Percent PD-1+ T-cells in spleens, single dose on Day 7 (Examples 17, 19, 20). The class given is in vivo, C57BL6 mice. The settings on record: E 0.1, 0.25, 1 mg IV or 2.5 mg PO, F 0.03-1 mg IV or 1 mg PO, G 0.1, 0.4, 1 mg IV or 1 mg PO. The procedure: as §1, §2, §3

For `O=C(O)[C@H](O)[C@@H](O)C(=O)OCc1ccccc1` [A, (2R,3R)-4-(benzyloxy)-2,3-dihydroxy-4-oxobutanoic acid], the “percent of CD8+ T-cell proliferation” value in the assay on murine CD8+ T cells worked out at 64.4%.

As for `O=C(O)[C@H](O)[C@@H](O)C(=O)OCCC1c2ccccc2-c2ccccc21` [Compound D, (2R,3R)-4-(2-(9H-fluoren-9-yl)ethoxy)-2,3-dihydroxy-4-oxobutanoic acid], in the assay on Granzyme B and IFN-γ (4-parameter model), the EC50 is 4.1 nM and the EC90 was 50 nM. In the assay on Granzyme B and IFN-γ (5-parameter model), the EC50 came to 3.5 nM and it took 39 nM to reach the 90% level (EC90). In the assay on Granzyme B and IFN-γ (FIG. 4, 5-parameter fit, read-out: maximal response (GzmB/IFN-γ double positive CD8+ T-cells)), the Emax was determined as 40%. In assay [1], the “CTA4+/CD8+ T-cells” value is on record as 0.27%, the “FoxP3+ CD4+ T-cells” value was found to be 5.42%, the “KLRG-1+/CD8+ T-cells” value is recorded as 5.11% and the “reduction in CTA4+/CD8+ T-cells” value was determined as 27%. Further, in assay [1], the “reduction in FoxP3+ CD4+ T-cells compared to control animals” value came to 58% and the “reduction in KLRG-1+/CD8+ T-cells” value worked out at 80%.

Regarding `O=C(O)[C@H](O)[C@@H](O)C(=O)NCCn1c2ccccc2c2ccccc21` [Compound F, (2R,3R)-4-((2-(9H-carbazol-9-yl)ethyl)amino)-2,3-dihydroxy-4-oxobutanoic acid], in the assay with KLRG1, the “activity after oral administration (KLRG1+, PD1+ T-cells)” value is “effective after oral administration” and the “percent KLRG1+ T-cells compared to untreated animals” value was “dose-dependent reduction”. Moreover, the “percent PD1+ T-cells compared to untreated animals” value in the assay on PD-1 is recorded as “dose-dependent reduction”.

With `O=C(O)[C@H](O)[C@@H](O)C(=O)NCCCc1ccccc1` [Compound G, (2R,3R)-2,3-dihydroxy-4-oxo-4-((3-phenylpropyl)amino)butanoic acid], in the assay on KLRG1, the “activity after oral administration (KLRG1+, PD1+ T-cells)” value is “effective after oral administration” and the “percent KLRG1+ T-cells compared to untreated animals” value is given as “dose-dependent reduction”. The “percent PD1+ T-cells compared to untreated animals” value in the assay with PD-1 is on record as “dose-dependent reduction”.
